Where two headings read alike, the source gives them in different places.
Experiments:
[1] = system: Mycosphaerella graminicola; Anamorph: Septoria tritici; Bayer Code SEPTTR (standard laboratory isolate, SI SEPTTR); experiment: Type A (high volume) assay, leaf blotch of wheat, standard laboratory SEPTTR isolate (SI SEPTTR); assay type: in vivo, Mycosphaerella graminicola on wheat plants (variety Yuma); settings: Zymoseptoria tritici, standard laboratory isolate, high volume, 50 ppm, wheat (Yuma)
Method: (§1) Example A: Evaluation of Fungicidal Activity: Leaf Blotch of Wheat (Mycosphaerella graminicola; Anamorph: Septoria tritici; Bayer Code SEPTTR)
(§2) For Type A assays, technical grades of the experimental fungicides in Table 4 below were dissolved in acetone, and then mixed with nine volumes of water containing 110 ppm Triton X-100. The fungicide solutions were applied onto wheat seedlings using an automated booth sprayer. For Type B assays, emulsifiable concentrate (EC) formulations of technical grades of the experimental fungicides in Table 4 below were prepared at 10% (w/v), and then mixed with 150 volumes of 0.1% Trycol 5941. These solutions were applied onto wheat seedlings using an automated track sprayer at 200 L/ha. All sprayed plants were allowed to air dry prior to further handling.
(§3) Wheat plants (variety Yuma) were grown from seed in a greenhouse in 50% mineral soil/50% soil-less Metro mix until the first leaf was fully emerged, with 7-10 seedlings per pot. Prior to or after application of experimental fungicides, plants were inoculated either with spores of a standard laboratory SEPTTR isolate (SI SEPTTR) or with spores from a SEPTTR field isolate collected from Wellsbourne, England in 2012 (FI SEPTTR). After inoculation the plants were kept for 3 days at 20° C. in 100% relative humidity (one day in a dark dew chamber followed by two days in a lighted dew chamber). Plants were then transferred to a 20° C. greenhouse for disease development. When disease symptoms were fully expressed on untreated plants, infection levels on treated plants were assessed on a scale of 0 to 100 percent disease severity. Percent disease control was calculated using the ratio of disease severity on treated plants relative to untreated plants.

[2] = Type B (low volume, EC formulation, track sprayer 200 L/ha) assay, leaf blotch of wheat, SEPTTR field isolate (FI SEPTTR); assay type: in vivo, Mycosphaerella graminicola on wheat plants (variety Yuma); settings: Zymoseptoria tritici, 72 h, SEPTTR field isolate, low volume Type B assay, 100 g/ha, wheat leaf blotch
Method: as §1, §2, §3

[3] = 24 h, 1 Day Protectant, read-out: Disease Control, SI SEPTTR Type A Assay (50 ppm) 1 DP
[4] = 72 h, 3 Day Curative, read-out: Disease Control, SI SEPTTR Type A Assay (50 ppm) 3 DC

| SMILES | pest or weed control at 50 ppm [1, 3] | pest or weed control at 50 ppm [1, 4] | pest or weed control at 100 g/ha ([2]; 3 Day Curative, read-out: Disease Control, FI SEPTTR Type B Assay (100 g/ha) 3 DC) | pest or weed control at 100 g/ha ([2]; 3 Day Protectant, read-out: Disease Control, FI SEPTTR Type B Assay (100 g/ha) 3 DP) |
| --- | --- | --- | --- | --- |
| N#Cc1ccc(Oc2ccc(C(O)(Cn3cnnn3)C(F)(F)c3ccc(F)cc3F)nc2)cc1 (stereo not shown) [Compound 1, 4-((6-(1-(2,4-difluorophenyl)-1,1-difluoro-2-hydroxy-3-(1H-tetrazol-1-yl)propan-2-yl)pyridin-3-yl)oxy)benzonitrile] | < 40% | 40 to 59% |  |  |
| OC(CCc1ccc(F)cc1F)(Cn1cnnn1)c1ccc(Oc2ccc(Cl)cn2)cn1 (stereo not shown) [Compound 2, 2-(5-((5-chloropyridin-2-yl)oxy)pyridin-2-yl)-4-(2,4-difluorophenyl)-1-(1H-tetrazol-1-yl)butan-2-ol] | 80 to 100% | < 40% |  |  |
| OC(CCc1ccc(Cl)cc1F)(Cn1cnnn1)c1ccc(Oc2ccc(Cl)cn2)cn1 (stereo not shown) [Compound 4] | 60 to 79% | < 40% |  |  |
| OC(CCc1ccc(F)cc1F)(Cn1cnnn1)c1ccc(Oc2ccc(C(F)(F)F)cn2)cn1 (stereo not shown) [Compound 5] | < 40% | 40 to 59% |  |  |
| CC(C)C(O)(c1cncnc1)c1ccc(Oc2ccc(Cl)cc2)cn1 (stereo not shown) [Compound 6] | 80 to 100% | 80 to 100% |  |  |
| OC(c1cncnc1)(c1ccc(Oc2ccc(Cl)cc2)cn1)C1CC1 (stereo not shown) [Compound 7] | 80 to 100% | 80 to 100% |  |  |
| OC(c1cncnc1)(c1ccc(Oc2ccc(OC(F)(F)F)cc2)cn1)C1CC1 (stereo not shown) [Compound 8] | 80 to 100% | 80 to 100% |  |  |
| CC(C)C(O)(c1cncnc1)c1ccc(Oc2ccc(Cl)nc2)cn1 (stereo not shown) [Compound 10] | 80 to 100% | 80 to 100% |  |  |
| OC(c1cncnc1)(c1ccc(Oc2ccc(Cl)nc2)cn1)C1CC1 (stereo not shown) [Compound 11] | 40 to 59% | 40 to 59% |  |  |
| OC(CCc1ccc(Cl)cc1F)(Cn1cnnn1)c1ccc(Oc2ccc(C(F)(F)F)cn2)cn1 (stereo not shown) [Compound 12] | 80 to 100% | < 40% |  |  |
| OC(CCc1ccc(Cl)cc1)(Cn1cnnn1)c1ccc(Oc2ccc(C(F)(F)F)cn2)cn1 (stereo not shown) [Compound 15] | 60 to 79% | 40 to 59% |  |  |
| CC(C)C(O)(c1cncnc1)c1ccc(Oc2ccc(C#N)cc2)cn1 (stereo not shown) [Compound 16] | 80 to 100% | 80 to 100% |  |  |
| N#Cc1ccc(Oc2ccc(C(O)(c3cncnc3)C3CC3)nc2)cc1 (stereo not shown) [Compound 18] | < 40% | < 40% |  |  |
| N#Cc1ccc(Oc2ccc(C(O)(Cn3cnnn3)C3CC3)nc2)cc1 (stereo not shown) [Compound 19, 4-((6-(1-cyclopropyl-1-hydroxy-2-(1H-tetrazol-1-yl)ethyl)pyridin-3-yl)oxy)benzonitrile] | < 40% | 40 to 59% |  |  |
| C=CCCC(O)(c1cncnc1)c1ccc(Oc2ccc(Cl)cc2)cn1 (stereo not shown) [Compound 21, 1-(5-(4-chlorophenoxy)pyridine-2-yl)-1-(pyrimidin-5-yl)pent-4-en-1-ol] | 80 to 100% | 80 to 100% |  |  |
| C=CCCC(O)(c1cncnc1)c1ccc(Oc2ccc(OC(F)(F)F)cc2)cn1 (stereo not shown) [Compound 22] | 80 to 100% | 80 to 100% |  |  |
| N#Cc1ccc(Oc2ccc(C(O)(CC3CC3)Cn3cnnn3)nc2)cc1 (stereo not shown) [Compound 23] | < 40% | 60 to 79% |  |  |
| CC(C)C(O)(Cn1cnnn1)c1ccc(Oc2ccc(C#N)cc2)cn1 (stereo not shown) [Compound 24] | < 40% | < 40% |  |  |
| CC(C)(C)C(O)(Cn1cnnn1)c1ccc(-c2ccc(OC(F)(F)F)cc2)cn1 (stereo not shown) [Compound 26, 3,3-dimethyl-1-(1H-tetrazol-1-yl)-2-[5-[4-(trifluoro-methoxy)phenyl]pyridine-2-yl]butan-2-ol] | < 40% | 40 to 59% |  |  |
| OC(Cc1ccc(Cl)cc1F)(Cn1cnnn1)c1ccc(-c2ccc(OC(F)(F)F)cc2)cn1 (stereo not shown) [Compound 28, 1-(4-chloro-2-fluorophenyl)-3-(1H-tetrazol-1-yl)-2-(5-(4-(trifluoromethoxy)phenyl)pyridin-2-yl)propan-2-ol] | 60 to 79% | 40 to 59% |  |  |
| CC(C)(C)C#CC(O)(c1cncnc1)c1ccc(Oc2ccc(Cl)cc2)cn1 (stereo not shown) [Compound 29, 1-(5-(4-chlorophenoxy)pyridin-2-yl)-4,4-dimethyl-1-(pyrimidin-5-yl)pent-2-yn-1-ol] | 80 to 100% | 80 to 100% |  |  |
| CC(C)(C)C#CC(O)(c1cncnc1)c1ccc(Oc2ccc(OC(F)(F)F)cc2)cn1 (stereo not shown) [Compound 31] | < 40% | 60 to 79% |  |  |

| SMILES | pest or weed control at 50 ppm [1, 3] | pest or weed control at 50 ppm [1, 4] | pest or weed control at 100 g/ha ([2]; 3 Day Curative, read-out: Disease Control, FI SEPTTR Type B Assay (100 g/ha) 3 DC) | pest or weed control at 100 g/ha ([2]; 3 Day Protectant, read-out: Disease Control, FI SEPTTR Type B Assay (100 g/ha) 3 DP) |
| --- | --- | --- | --- | --- |
| CCC(O)(c1cncnc1)c1ccc(Oc2ccc(OC(F)(F)F)cc2)cn1 (stereo not shown) [Compound 32] | 80 to 100% | 80 to 100% |  |  |
| CC(C)(C)C#CC(O)(c1cncnc1)c1ccc(Oc2ccc(C(F)(F)F)cc2)cn1 (stereo not shown) [Compound 33] | 80 to 100% | 60 to 79% |  |  |
| CCC(O)(c1cncnc1)c1ccc(Oc2ccc(C(F)(F)F)cc2)cn1 (stereo not shown) [Compound 34] | 80 to 100% | 60 to 79% |  |  |
| CC(C)(C)C#CC(O)(c1cncnc1)c1ccc(Oc2ccc(Cl)nc2)cn1 (stereo not shown) [Compound 35] | < 40% | 60 to 79% |  |  |
| CCC(O)(c1cncnc1)c1ccc(Oc2ccc(Cl)nc2)cn1 (stereo not shown) [Compound 36] | < 40% | 60 to 79% |  |  |
| OC(C#CC1CC1)(c1cncnc1)c1ccc(Oc2ccc(Cl)cc2)cn1 (stereo not shown) [Compound 40] | 80 to 100% | 60 to 79% |  |  |
| OC(Cc1ccc(Cl)cc1F)(Cn1cnnn1)c1ccc(Oc2ccc(Cl)cc2)cn1 (stereo not shown) [Compound 42, 1-(4-chloro-2-fluorophenyl)-2-(5-(4-chlorophenoxy)-pyridin-2-yl)-3-(1H-tetrazol-1-yl)propan-2-ol] | 80 to 100% | 80 to 100% |  |  |
| CC(C)(C)C(O)(Cn1cnnn1)c1ccc(Oc2ccc(Cl)cc2)cn1 (stereo not shown) [Compound 43] | 60 to 79% | 80 to 100% |  |  |
| CC(C)(C)C(O)(c1cncnc1)c1ccc(Oc2ccc(Cl)cc2)cn1 (stereo not shown) [Compound 44] | < 40% | < 40% |  |  |
| OC(Cc1cncnc1)(c1ccc(-c2ccc(Cl)cc2)cn1)C(F)(F)F (stereo not shown) [Compound 46, 2-(5-(4-chlorophenyl)pyridin-2-yl)-1,1,1-trifluoro-3-(pyrimidin-5-yl)propan-2-ol] | 80 to 100% | 80 to 100% |  |  |
| OC(C#CC1CC1)(c1cncnc1)c1ccc(Oc2ccc(C(F)(F)F)cc2)cn1 (stereo not shown) [Compound 47] | 40 to 59% | 80 to 100% |  |  |
| OC(C#CC1CC1)(c1cncnc1)c1ccc(Oc2ccc(OC(F)(F)F)cc2)cn1 (stereo not shown) [Compound 48] | < 40% | < 40% |  |  |
| CC(C)(C)C#CC(O)(c1cncnc1)c1ccc(Oc2ccc(Cl)cn2)cn1 (stereo not shown) [Compound 49] | 60 to 79% | 80 to 100% |  |  |
| Cc1ccc(Oc2ccc(C(O)(C#CC(C)(C)C)c3cncnc3)nc2)nc1 (stereo not shown) [Compound 50] | < 40% | 60 to 79% |  |  |
| OC(Cc1cncnc1)(c1ccc(-c2ccc(Cl)cc2)cn1)C1CCCCC1 (stereo not shown) [Compound 52] | 60 to 79% | 60 to 79% |  |  |
| Cc1ccc(Oc2ccc(C(O)(c3cncnc3)C(C)C)nc2)nc1 (stereo not shown) [Compound 53] | 40 to 59% | < 40% |  |  |
| CCC(O)(c1cncnc1)c1ccc(Oc2ccc(Cl)cn2)cn1 (stereo not shown) [Compound 54] | < 40% | 40 to 59% |  |  |
| OC(Cc1cncnc1)(c1ccc(-c2ccc(Cl)cc2)cn1)C1CCCC1 (stereo not shown) [Compound 56] | 80 to 100% | 80 to 100% |  |  |
| CC(C)C(O)(c1cncnc1)c1ccc(Oc2ccc(C(F)(F)F)cn2)cn1 (stereo not shown) [Compound 58] | 60 to 79% | 80 to 100% |  |  |
| CC(C)C(O)(Cn1cnnn1)c1ccc(-c2ccc(OC(F)(F)F)cc2)cn1 (stereo not shown) [Compound 61] | 40 to 59% | 60 to 79% |  |  |
| CC(C)C(O)(Cn1cnnn1)c1ccc(-c2ccc(OCC(F)(F)F)nc2)cn1 (stereo not shown) [Compound 62] | 40 to 59% | 40 to 59% |  |  |
| COc1ncncc1C(O)(c1ccc(-c2ccc(OC(F)F)cc2)cn1)C(C)(C)C (stereo not shown) [Compound 273] |  |  | < 40% | 80 to 100% |

From patent publication US10167300B2, “Metalloenzyme inhibitor compounds as fungicides” (priority 2014, dated 2019)
